Source: patent US9499493B2, “2,4-pyrimidinediamine compounds and their uses” (Rigel Pharmaceuticals, Inc., priority 2002, dated 2016)

Tests used:
Format in all cases: cell-based
[1] = test system: cultured human mast cells (CHMC); experiment: CHMC low cell density ionomycin activation: tryptase assay
[2] = test system: FcγRI-mediated degranulation; experiment: FcγRI receptor-mediated degranulation (activation with anti-human IgG Fab fragment); details: cells not primed with IgE, activated with rabbit anti-human IgG Fab fragment
[3] = test system: Jurkat cells; experiment: Jurkat (T-cell) toxicity, light scatter; details: 18-24 hr incubation; read-out: Toxicity Jurkat Light Scat.
Experimental: Dilute Jurkat cells to 2×10^5 cells/ml in complete RPMI (10% heat-inactivated fetal bovine serum) media and incubate at 37° C., 5% CO2 for 18 hours. Add 65 ul cells at 7.7×10^5 cells/ml to a 96-well V-bottom plate (TC-treated, Costar) containing 65 ul 2× compound (final vehicle concentration is 0.5% DMSO, 1.5% MeOH). Mix, incubate plates for 18-24 hr at 37° C., 5% CO2. Toxicity was assessed by flow cytometric analysis of cellular light scatter

[4] = test system: B-cell line BJAB; experiment: BJAB (B-cell) toxicity, light scatter; details: read-out: Toxicity BJAB Light Scat.
Experimental: The B-cell line BJAB was cultured in log phase in RPMI1640+10% heat-inactivated fetal bovine serum, 1× L-glutamine, 1× penicillin, 1× […] and 1× beta-mercaptoethanol at 37° C., 5% CO2. First, BJABs were harvested, spun and resuspended in culture medium to a concentration of 7.7×10^5 cells/mL. 65 uL cells were mixed with 65 uL compound, in duplicate and in the presence of 0.1% DMSO in a V-bottomed 96-well tissue culture plate. Cells were incubated with compound at various dilutions at 37° C., 5% CO2. Toxicity was assessed by flow cytometric analysis of cellular light scatter.

[5] = test system: cultured human mast cells (CHMC); experiment: CHMC low cell density IgE activation: tryptase assay; details: anti-IgE
Outline: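 Degranulation is read as supernatant tryptase activity, using tryptase substrate incubated 30 min at room temperature. Before this, CHMC at low density (1000-1500 cells/well) rest 1 hr at 37° C and are triggered with anti-IgE for 30 min at 37° C.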

[6] = test system: cultured human mast cells (CHMC); experiment: CHMC low cell density IgE activation: LTC4 assay; details: anti-IgE
Experimental: Pellet CHMC cells (980 rpm, 10 min) and resuspend in pre-warmed MT. Add 65 ul of cells to each 96-well plate. Depending on the degranulation activity for each particular CHMC donor, load 1000-1500 cells/well. Mix four times followed by a 1 hr incubation at 37° C. […] Stimulate cells by adding 25 ul of 6× anti-IgE solution to the appropriate plates. Add 25 ul MT to un-stimulated control wells. Mix twice following addition of the anti-IgE. Incubate at 37° C. for 30 minutes. […] Spin plates at 1000 rpm for 10 min to pellet cells. Transfer 25 ul of supernatant to a 96-well black bottom plate and add 100 ul of freshly diluted tryptase substrate solution to each well. Incubate plates at room temperature for 30 min.
Leukotriene C4 (LTC4) is also quantified using an ELISA kit on appropriately diluted supernatant samples (determined empirically for each donor cell population so that the sample measurement falls within the standard curve) following the supplier's instructions.

[7] = test system: cultured human mast cells (CHMC); experiment: CHMC high cell density IgE activation: TNFalpha; details: anti-IgE activation; read-out: CHMC high density TNF-alpha
Experimental: (§1) Inhibition of degranulation was measured at both low and high cell density by quantifying the release of the granule specific factors tryptase, histamine and hexosaminidase. Inhibition of release and/or synthesis of lipid mediators was assessed by measuring the release of leukotriene LTC4 and inhibition of release and/or synthesis of cytokines was monitored by quantifying TNF-α, IL-6 and IL-13. Tryptase and hexosaminidase were quantified using fluorogenic substrates as described in their respective examples. […] The protocols of the various assays are provided below.
(§2) After sensitizing, cells are counted, pelleted (1000 rpm, 5-10 minutes), and resuspended at 1-2×10^6 cells/ml in MT buffer. Add 100 ul of cell suspension to each well and 100 ul of compound dilutions. The final vehicle concentration is 0.5% DMSO. Incubate at 37° C. (5% CO2) for 1 hour. After 1 hour of compound treatment, stimulate cells with 6× anti-IgE. Mix wells with the cells and allow plates to incubate at 37° C. (5% CO2) for one hour. After 1 hour incubation, pellet cells (10 minutes, 1000 RPM) and collect 200 ul per well of the supernatant, being careful not to disturb pellet. Place the supernatant plate on ice. During the 7-hour step (see next) perform tryptase assay on supernatant that had been diluted 1:500. Resuspend cell pellet in 240 ul of CM media containing 0.5% DMSO and corresponding concentration of compound. Incubate CHMC cells for 7 hours at 37° C. (5% CO2). After incubation, pellet cells (1000 RPM, 10 minutes) and collect 225 ul per well and place in −80° C. until ready to perform ELISAS. ELISAS are performed on appropriately diluted samples (determined empirically for each donor cell population so that the sample measurement falls within the standard curve) following the supplier's instructions.

[8] = test system: cultured human mast cells (CHMC); experiment: CHMC high cell density IgE activation: hexos (hexosaminidase) release; details: anti-IgE activation
Experimental: as §1, §2

[9] = test system: cultured human mast cells (CHMC); experiment: CHMC high cell density IgE activation: tryptase; details: anti-IgE activation
Experimental: as §2

[10] = test system: cultured human mast cells (CHMC); experiment: CHMC high cell density IgE activation: histamine; details: anti-IgE activation
Experimental: as §1, §2

[11] = test system: cultured human mast cells (CHMC); experiment: CHMC high cell density IgE activation: LTC4; details: anti-IgE activation
Experimental: as §1, §2

| Structure (SMILES) | IC50 [1] | IC50 [3] | IC50 [4] | IC50 [5] | IC50 [6] | further results |
| --- | --- | --- | --- | --- | --- | --- |
| CNC(=O)COc1cccc(Nc2ncc(F)c(Nc3ccc(OC(F)(F)F)c(Cl)c3)n2)c1 [R920410, N4-(3-Chloro-4-trifluoromethoxyphenyl)-5-fluoro-N2-[3-(N-methylamino)carbonylmethyleneoxyphenyl]-2,4-pyrimidinediamine] | > 10000 nM |  |  |  |  | FcγRI-mediated degranulation (in words) [2]: inhibit FcγRI-mediated degranulation |
| CNC(=O)COc1cccc(Nc2ncc(F)c(Nc3ccc4c(c3)NC(=O)C(F)(F)O4)n2)c1 [R921303, N4-[(2,2-Difluoro-4H-benzo[1,4]oxazin-3-one)-6-yl]-5-fluoro-N2-[3-(methylaminocarbonylmethyleneoxy)phenyl]-2,4-pyrimidinediamine] |  |  |  |  |  | FcγRI-mediated degranulation (in words) [2]: inhibit FcγRI-mediated degranulation |
| CCOC(=O)COc1ccc(Nc2ncc(C#N)c(Nc3ccc(OCC(=O)OCC)cc3)n2)cc1 [R925775, N2,N4-Bis[4-(ethoxycarbonylmethyleneoxy)phenyl]-5-cyano-2,4-pyrimidinediamine] | > 10000 nM | > 10000 nM | > 10000 nM |  |  |  |
| CCOC(=O)COc1ccc(Nc2ncc(Br)c(Nc3ccc(OCC(=O)OCC)cc3)n2)cc1 [R925779, N2,N4-Bis[4-(ethoxycarbonylmethyleneoxy)phenyl]-5-bromo-2,4-pyrimidinediamine] | > 10000 nM | > 10000 nM | > 10000 nM | 265 nM | 190 nM |  |
| COC(=O)COc1ccc(Nc2ncc(F)c(Nc3ccc(OCC(=O)OC)cc3)n2)cc1 [R926240, N2,N4-Bis[(4-methoxycarbonylmethyleneoxy)phenyl]-5-fluoro-2,4-pyrimidinediamine] | 1700 nM | 10000 nM | > 10000 nM | 381 nM | 145 nM |  |
| CCOC(=O)c1cnc(Nc2ccc(OCC(=O)OC)cc2)nc1Nc1ccc(OCC(=O)OC)cc1 [R926253, N2,N4-Bis(4-methoxycarbonylmethyleneoxyphenyl)-5-ethoxycarbonyl-2,4-pyrimidinediamine] |  | > 10000 nM | > 10000 nM | 800 nM | 675 nM |  |
| COC(=O)COc1ccc(Nc2ccnc(Nc3ccc(OCC(=O)OC)cc3)n2)cc1 [R926256, N2,N4-Bis[(4-methoxycarbonylmethyleneoxy)phenyl]-2,4-pyrimidinediamine] | 5100 nM | > 10000 nM | > 10000 nM | 275 nM | 230 nM |  |
| COC(=O)COc1ccc(Nc2ncc(C)c(Nc3ccc(OCC(=O)OC)cc3)n2)cc1 [R926258, N2,N4-Bis(4-methoxycarbonylmethyleneoxyphenyl)-5-methyl-2,4-pyrimidinediamine] | > 10000 nM | > 10000 nM | > 10000 nM | 900 nM | 590 nM |  |
| CCOC(=O)COc1ccc(Nc2ncc(F)c(Nc3cccc(O)c3)n2)cc1 [R926395, N2-(4-Ethoxycarbonylmethyleneoxyphenyl)-5-fluoro-N4-(3-hydroxyphenyl)-2,4-pyrimidinediamine] | 6400 nM | > 10000 nM | > 10000 nM | 875 nM | 290 nM |  |
| CCOC(=O)COc1ccc(Nc2ncc(Br)c(Nc3cccc(O)c3)n2)cc1 [R926396, 5-Bromo-N2-(4-ethoxycarbonylmethyleneoxyphenyl)-N4-(3-hydroxyphenyl)-2,4-pyrimidinediamine] | 2600 nM | > 10000 nM | > 10000 nM | 700 nM | 160 nM |  |
| COC(=O)COc1ccc(Nc2cc(Cl)nc(Nc3ccc(OCC(=O)OC)cc3)n2)cc1 [R926411, N2,N4-Bis(4-methoxycarbonylmethyleneoxyphenyl)-6-chloro-2,4-pyrimidinediamine] | 2500 nM | 8500 nM | > 10000 nM | 690 nM |  |  |
| Fc1cnc(Nc2cccc(OCCN3CCOCC3)c2)nc1Nc1ccc2c(c1)OCCO2 [R926486, N4-(3,4-Ethylenedioxyphenyl)-5-fluoro-N2-[3-[2-(N-morpholino)ethyleneoxy]phenyl]-2,4-pyrimidinediamine] | 7400 nM |  |  | 647 nM |  | IC50 [7]: 455 nM |
| COC(=O)c1cc2cc(Nc3ncc(F)c(Nc4ccc5[nH]c(C(=O)OC)cc5c4)n3)ccc2[nH]1 [R926593] |  |  |  |  |  | IC50 ([5]; Homo sapiens, Mast cell): 680 nM; IC50 ([6]; Homo sapiens, Mast cell): 495 nM; IC50 ([1]; Homo sapiens, Mast cell): 8300 nM |
| CC(C)Oc1ccc(Nc2nc(Nc3ccc4oc(C(=O)N5CCCC5)cc4c3)ncc2F)cc1 [R926703, 5-Fluoro-N4-(4-isopropoxyphenyl)-N2-[2-(N-pyrrolidino)carbonylbenzofuran-5-yl]-2,4-pyrimidinediamine] | > 10000 nM |  |  | 525 nM |  | IC50 [8]: 1510 nM; IC50 [9]: 1950 nM; IC50 [10]: > 2000 nM; IC50 [11]: 724 nM; IC50 [7]: > 2000 nM |
| Cc1cc(Nc2ncc(F)c(Nc3ccc4c(c3)NC(=O)C(F)(F)O4)n2)cc(Cl)c1O [R926971] |  |  |  |  |  | FcγRI-mediated degranulation (in words) [2]: inhibit FcγRI-mediated degranulation |
| CNC(=O)COc1cccc(Nc2ncc(F)c(Nc3ccc4c(n3)NC(=O)C(C)(C)O4)n2)c1 [R940347, N4-[(2,2-Dimethyl-4H-5-pyrido[1,4]oxazin-3-one)-6-yl]-5-fluoro-N2-[3-(methylaminocarbonylmethyleneoxy)phenyl]-2,4-pyrimidinediamine] |  |  |  | 63 nM |  | FcγRI-mediated degranulation (in words) [2]: inhibit FcγRI-mediated degranulation |
| O=C1Nc2cc(Nc3ncc(F)c(Nc4ccc5c(c4)NC(=O)C(F)(F)O5)n3)ccc2OC1(F)F [R940352, N2,N4-[(2,2-Difluoro-4H-benzo[1,4]oxazin-3-one)-6-yl]-5-fluoro-2,4-pyrimidinediamine] | > 10000 nM |  |  | 101 nM |  | FcγRI-mediated degranulation (in words) [2]: inhibit FcγRI-mediated degranulation |
| Fc1cnc(Nc2ccc(OCc3nnn[nH]3)cc2)nc1Nc1ccc(OCc2nnn[nH]2)cc1 [R945033, N2,N4-Bis[4-(1H-1,2,3,4-tetrazol-5-yl)methyleneoxyphenyl]-5-fluoro-2,4-pyrimidinediamine] | > 10000 nM |  |  | > 10000 nM |  | IC50 [8]: 8150 nM; IC50 [9]: 8870 nM; IC50 [10]: > 10000 nM; IC50 [11]: 5980 nM |
| Cc1nc(COc2cccc(Nc3ncc(F)c(Nc4ccc5c(c4)OCCO5)n3)c2)no1 [R945128, N4-(3,4-Ethylenedioxyphenyl)-5-fluoro-N2-[3-(5-methyl-1,2,4-oxadiazol-3-yl)methyleneoxyphenyl]-2,4-pyrimidinediamine] | 8800 nM |  |  |  |  | IC50 [8]: 1280 nM; IC50 [9]: 1750 nM; IC50 [10]: 547 nM; IC50 [7]: > 2000 nM |
